Measurements reported in ChEMBL document CHEMBL1909046, “DrugMatrix in vitro pharmacology data”.
Where a SMILES comes first, the peptide text is derived from it. Bridges are numbered along the chain shown (N, C = ends). [ ]: non-standard residue; d: D form. The star is where a group is joined. Threoninol(2S,3R) = C[C@@H](O)[C@H](CO)N*

Assays:
Acetylcholinesterase = Acetylcholinesterase (Homo sapiens, UniProt P22303); experiment: DRUGMATRIX: Acetylcholinesterase enzyme inhibition (substrate: acetylthiocholine); assay type: cell-based, HEK293; conditions: hek293; Not Active = under 50% inhibition at 10 µM
Caspase-1 = biological target: T1, Caspase-1 (Homo sapiens, UniProt P29466); parameters: species or system Escherichia coli;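 also: Caspase-1 enzyme inhibition assay with a peptide substrate; in other assays of this panel Not Active means under 50% inhibition at 10 µM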
T1 sequence (P29466 whole entry): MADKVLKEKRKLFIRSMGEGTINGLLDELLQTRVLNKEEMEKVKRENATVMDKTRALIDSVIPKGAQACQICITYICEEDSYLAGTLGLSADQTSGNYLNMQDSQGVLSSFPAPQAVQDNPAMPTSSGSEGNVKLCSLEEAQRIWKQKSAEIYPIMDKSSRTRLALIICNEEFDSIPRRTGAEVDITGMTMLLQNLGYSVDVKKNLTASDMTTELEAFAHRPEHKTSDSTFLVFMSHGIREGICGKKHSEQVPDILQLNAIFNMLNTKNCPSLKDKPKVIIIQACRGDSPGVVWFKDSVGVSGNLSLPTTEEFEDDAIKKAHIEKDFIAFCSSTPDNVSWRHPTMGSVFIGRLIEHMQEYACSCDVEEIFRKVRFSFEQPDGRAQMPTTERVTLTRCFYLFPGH

Nitric oxide synthase 1 = Nitric oxide synthase 1 (Rattus norvegicus, UniProt P29476); assay type: tissue-based, Cerebellum; also: in other assays of this panel Not Active means under 50% inhibition at 10 µM
[1] = biological target: T2, Muscarinic acetylcholine receptor M5 (Homo sapiens, UniProt P08912); assay type: cell membranes, CHO-K1, Membrane; conditions: cho-k1; also: in other assays of this panel Not Active means under 50% inhibition at 10 µM
T2 sequence (P08912 whole entry): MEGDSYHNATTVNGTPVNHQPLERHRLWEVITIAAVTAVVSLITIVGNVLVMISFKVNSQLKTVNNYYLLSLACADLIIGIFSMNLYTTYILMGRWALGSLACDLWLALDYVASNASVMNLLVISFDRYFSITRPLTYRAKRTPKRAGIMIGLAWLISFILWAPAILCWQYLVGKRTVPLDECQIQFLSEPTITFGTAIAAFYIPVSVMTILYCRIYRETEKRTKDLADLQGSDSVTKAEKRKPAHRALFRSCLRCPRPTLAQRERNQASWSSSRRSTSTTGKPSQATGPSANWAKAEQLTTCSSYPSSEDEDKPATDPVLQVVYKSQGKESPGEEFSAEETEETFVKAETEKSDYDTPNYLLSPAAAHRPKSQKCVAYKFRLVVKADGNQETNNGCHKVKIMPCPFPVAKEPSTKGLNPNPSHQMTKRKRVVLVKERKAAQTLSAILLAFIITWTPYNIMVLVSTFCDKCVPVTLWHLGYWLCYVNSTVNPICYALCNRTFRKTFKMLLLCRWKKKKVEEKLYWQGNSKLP

[2] = biological target: Vascular endothelial growth factor receptor 1 (Homo sapiens, UniProt P17948); assay type: cell-based; conditions: huvec; also: in other assays of this panel Not Active means under 50% inhibition at 10 µM
[3] = biological target: Epidermal growth factor receptor (Homo sapiens, UniProt P00533); experiment: DRUGMATRIX: Protein Tyrosine Kinase, EGF Receptor enzyme inhibition (substrate: Poly(Glu:Tyr)); assay type: cell-based, Insect cells; conditions: insect cells; Not Active = under 50% inhibition at 10 µM
[4] = biological target: T3, Nitric oxide synthase, inducible (Mus musculus, UniProt P29477); parameters: species or system Escherichia coli
T3 sequence (P29477 whole entry): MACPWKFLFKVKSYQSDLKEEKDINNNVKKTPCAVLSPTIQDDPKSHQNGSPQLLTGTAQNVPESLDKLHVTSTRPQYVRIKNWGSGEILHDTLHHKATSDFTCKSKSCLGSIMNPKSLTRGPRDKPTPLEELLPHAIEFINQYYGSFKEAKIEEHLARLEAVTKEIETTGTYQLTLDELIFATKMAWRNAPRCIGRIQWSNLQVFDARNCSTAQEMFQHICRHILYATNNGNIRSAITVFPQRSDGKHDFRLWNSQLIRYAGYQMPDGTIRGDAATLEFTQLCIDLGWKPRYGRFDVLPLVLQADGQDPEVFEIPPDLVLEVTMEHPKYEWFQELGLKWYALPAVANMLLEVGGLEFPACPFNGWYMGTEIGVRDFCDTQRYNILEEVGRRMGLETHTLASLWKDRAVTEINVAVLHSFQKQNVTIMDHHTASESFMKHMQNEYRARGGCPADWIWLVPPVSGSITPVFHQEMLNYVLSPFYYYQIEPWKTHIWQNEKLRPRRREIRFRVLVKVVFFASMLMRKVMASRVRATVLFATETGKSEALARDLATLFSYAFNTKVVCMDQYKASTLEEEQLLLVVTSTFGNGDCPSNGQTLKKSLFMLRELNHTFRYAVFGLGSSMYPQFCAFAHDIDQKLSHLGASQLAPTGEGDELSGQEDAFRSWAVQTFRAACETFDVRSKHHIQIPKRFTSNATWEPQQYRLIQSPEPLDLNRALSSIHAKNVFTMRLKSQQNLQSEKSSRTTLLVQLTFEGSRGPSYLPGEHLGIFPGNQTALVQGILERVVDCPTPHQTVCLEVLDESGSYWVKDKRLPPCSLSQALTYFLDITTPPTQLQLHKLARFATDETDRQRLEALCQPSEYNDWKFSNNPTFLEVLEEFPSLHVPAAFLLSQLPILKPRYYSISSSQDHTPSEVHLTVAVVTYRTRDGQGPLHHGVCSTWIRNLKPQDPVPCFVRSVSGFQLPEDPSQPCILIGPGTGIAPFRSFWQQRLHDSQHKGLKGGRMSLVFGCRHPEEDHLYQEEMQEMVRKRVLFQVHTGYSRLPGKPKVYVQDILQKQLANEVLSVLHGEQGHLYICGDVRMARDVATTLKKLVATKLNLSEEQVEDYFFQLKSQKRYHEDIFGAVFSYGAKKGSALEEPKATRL

Chain of Nitric oxide synthase 1 (P29476 whole entry): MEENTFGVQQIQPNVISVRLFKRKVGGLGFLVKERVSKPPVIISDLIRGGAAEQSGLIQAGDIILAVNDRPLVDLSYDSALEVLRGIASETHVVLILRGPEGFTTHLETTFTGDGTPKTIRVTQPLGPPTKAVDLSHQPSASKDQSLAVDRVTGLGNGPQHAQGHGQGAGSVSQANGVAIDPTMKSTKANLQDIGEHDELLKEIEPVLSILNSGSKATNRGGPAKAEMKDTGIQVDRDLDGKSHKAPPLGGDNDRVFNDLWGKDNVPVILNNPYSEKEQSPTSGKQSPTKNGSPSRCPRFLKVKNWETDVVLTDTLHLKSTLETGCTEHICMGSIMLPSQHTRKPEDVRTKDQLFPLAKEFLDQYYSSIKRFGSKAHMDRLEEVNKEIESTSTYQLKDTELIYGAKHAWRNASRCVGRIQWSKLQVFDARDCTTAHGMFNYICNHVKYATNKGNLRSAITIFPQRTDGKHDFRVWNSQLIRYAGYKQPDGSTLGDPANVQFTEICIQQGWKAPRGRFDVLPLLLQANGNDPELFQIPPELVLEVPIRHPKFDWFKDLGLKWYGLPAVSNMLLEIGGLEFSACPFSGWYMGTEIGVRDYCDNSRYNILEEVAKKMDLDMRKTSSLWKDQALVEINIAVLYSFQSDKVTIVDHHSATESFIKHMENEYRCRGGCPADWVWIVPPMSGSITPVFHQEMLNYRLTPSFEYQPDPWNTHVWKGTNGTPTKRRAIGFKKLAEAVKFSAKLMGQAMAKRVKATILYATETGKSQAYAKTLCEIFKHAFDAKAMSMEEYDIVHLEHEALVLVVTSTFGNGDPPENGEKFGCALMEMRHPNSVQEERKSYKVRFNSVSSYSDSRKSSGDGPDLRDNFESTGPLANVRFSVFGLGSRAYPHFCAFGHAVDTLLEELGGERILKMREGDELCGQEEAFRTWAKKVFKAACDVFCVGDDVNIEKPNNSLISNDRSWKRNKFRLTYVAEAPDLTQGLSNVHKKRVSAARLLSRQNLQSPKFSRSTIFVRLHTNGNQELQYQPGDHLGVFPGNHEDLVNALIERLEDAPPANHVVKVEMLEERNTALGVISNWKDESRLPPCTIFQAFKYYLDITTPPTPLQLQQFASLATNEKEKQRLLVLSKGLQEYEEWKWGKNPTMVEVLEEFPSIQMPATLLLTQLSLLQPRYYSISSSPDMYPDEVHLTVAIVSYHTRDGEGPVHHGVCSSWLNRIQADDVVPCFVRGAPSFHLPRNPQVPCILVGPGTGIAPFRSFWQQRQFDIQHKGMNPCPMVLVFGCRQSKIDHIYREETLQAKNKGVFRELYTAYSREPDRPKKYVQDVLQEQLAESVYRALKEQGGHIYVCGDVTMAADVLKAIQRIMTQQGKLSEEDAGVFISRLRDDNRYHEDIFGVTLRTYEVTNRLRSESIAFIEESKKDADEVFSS
Chain of Epidermal growth factor receptor (P00533 whole entry): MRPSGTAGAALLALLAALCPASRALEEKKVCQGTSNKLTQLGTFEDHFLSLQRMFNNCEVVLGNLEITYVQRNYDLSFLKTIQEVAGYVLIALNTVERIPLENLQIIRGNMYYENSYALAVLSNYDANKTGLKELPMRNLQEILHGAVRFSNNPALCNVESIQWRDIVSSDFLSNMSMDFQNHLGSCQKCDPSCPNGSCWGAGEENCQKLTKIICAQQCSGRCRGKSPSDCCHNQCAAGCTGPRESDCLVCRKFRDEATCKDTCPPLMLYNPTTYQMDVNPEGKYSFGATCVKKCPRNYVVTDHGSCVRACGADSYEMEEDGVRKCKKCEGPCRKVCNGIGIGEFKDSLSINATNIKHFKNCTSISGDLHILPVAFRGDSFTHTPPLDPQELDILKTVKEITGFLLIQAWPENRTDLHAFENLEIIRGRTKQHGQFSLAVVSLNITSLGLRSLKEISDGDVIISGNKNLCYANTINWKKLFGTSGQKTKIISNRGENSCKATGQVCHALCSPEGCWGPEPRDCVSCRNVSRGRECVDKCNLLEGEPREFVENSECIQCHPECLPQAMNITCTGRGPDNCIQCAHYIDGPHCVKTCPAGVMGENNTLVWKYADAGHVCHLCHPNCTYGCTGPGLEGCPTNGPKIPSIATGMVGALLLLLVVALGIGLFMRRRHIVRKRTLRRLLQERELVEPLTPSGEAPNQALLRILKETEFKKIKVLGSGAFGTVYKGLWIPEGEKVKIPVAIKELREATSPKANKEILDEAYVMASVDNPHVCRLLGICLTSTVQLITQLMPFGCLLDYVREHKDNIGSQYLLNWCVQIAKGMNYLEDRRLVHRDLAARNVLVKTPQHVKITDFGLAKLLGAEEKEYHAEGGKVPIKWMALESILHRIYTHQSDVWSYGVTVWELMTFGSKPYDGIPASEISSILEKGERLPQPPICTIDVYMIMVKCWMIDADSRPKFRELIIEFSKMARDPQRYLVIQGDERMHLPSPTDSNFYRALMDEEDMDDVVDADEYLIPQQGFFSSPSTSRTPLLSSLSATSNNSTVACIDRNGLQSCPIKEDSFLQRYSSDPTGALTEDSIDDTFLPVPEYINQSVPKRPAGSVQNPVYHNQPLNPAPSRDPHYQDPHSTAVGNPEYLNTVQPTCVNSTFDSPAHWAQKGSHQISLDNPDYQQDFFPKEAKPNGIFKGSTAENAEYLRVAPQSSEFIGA
Chain of Vascular endothelial growth factor receptor 1 (P17948 whole entry): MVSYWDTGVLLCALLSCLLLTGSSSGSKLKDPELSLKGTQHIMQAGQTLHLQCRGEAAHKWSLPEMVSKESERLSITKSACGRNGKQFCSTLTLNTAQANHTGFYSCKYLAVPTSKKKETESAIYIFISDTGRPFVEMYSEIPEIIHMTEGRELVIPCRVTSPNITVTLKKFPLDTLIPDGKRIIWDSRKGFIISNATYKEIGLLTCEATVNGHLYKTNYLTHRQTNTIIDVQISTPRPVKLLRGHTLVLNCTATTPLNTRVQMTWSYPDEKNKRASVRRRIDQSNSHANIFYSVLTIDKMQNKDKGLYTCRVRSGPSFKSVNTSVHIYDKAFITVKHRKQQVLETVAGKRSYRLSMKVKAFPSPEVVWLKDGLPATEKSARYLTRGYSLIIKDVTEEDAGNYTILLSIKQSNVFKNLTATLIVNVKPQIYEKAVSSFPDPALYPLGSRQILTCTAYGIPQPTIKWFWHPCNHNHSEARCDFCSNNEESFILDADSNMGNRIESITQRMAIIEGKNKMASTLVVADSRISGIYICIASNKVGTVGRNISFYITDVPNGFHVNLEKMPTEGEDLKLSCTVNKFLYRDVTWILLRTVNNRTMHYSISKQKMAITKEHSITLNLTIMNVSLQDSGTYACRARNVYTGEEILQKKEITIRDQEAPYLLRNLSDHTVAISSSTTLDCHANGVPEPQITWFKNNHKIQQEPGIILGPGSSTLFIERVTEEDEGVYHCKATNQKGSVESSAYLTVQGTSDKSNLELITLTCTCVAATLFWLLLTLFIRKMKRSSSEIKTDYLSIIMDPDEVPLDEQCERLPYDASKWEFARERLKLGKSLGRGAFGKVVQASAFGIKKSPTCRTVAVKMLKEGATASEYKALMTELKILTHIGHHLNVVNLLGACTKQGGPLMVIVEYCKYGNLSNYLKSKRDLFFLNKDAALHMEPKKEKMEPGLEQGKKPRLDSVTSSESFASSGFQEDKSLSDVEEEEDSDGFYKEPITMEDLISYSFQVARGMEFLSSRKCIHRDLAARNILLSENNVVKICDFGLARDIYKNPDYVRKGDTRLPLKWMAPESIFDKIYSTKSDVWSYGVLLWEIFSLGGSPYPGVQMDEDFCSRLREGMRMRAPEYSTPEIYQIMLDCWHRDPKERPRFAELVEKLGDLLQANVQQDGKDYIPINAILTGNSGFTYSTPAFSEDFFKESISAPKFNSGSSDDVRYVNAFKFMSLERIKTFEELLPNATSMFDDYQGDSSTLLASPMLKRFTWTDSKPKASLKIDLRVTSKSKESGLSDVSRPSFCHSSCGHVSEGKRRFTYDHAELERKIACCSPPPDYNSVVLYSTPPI
Chain of Acetylcholinesterase (P22303 whole entry): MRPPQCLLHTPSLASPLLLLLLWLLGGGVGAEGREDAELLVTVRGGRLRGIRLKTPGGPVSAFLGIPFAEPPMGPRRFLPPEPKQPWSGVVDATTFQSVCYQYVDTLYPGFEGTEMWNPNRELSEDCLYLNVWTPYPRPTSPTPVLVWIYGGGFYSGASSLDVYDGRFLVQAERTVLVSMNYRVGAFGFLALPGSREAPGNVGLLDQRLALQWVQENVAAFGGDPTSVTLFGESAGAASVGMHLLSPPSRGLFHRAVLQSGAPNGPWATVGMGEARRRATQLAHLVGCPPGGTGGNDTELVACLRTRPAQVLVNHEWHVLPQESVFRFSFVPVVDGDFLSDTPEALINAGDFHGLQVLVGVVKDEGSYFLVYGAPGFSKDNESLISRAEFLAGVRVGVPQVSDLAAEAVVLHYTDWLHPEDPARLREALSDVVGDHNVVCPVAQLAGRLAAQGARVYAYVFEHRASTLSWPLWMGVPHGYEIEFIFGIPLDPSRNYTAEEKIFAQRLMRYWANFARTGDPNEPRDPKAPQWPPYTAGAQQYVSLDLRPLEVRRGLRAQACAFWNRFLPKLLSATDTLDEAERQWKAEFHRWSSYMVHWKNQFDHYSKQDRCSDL

COc1ccccc1C(=O)N1CCC(Cc2ccccc2)CC1
Not Active: IC50 (Acetylcholinesterase) | IC50 (Caspase-1) | IC50 (Nitric oxide synthase 1) | IC50 [1] | IC50 [2] | IC50 [3] | IC50 [4]

Cc1ccccc1C(=O)N1CCC(Cc2ccccc2)CC1
Not Active: IC50 (Acetylcholinesterase) | IC50 (Caspase-1) | IC50 (Nitric oxide synthase 1) | IC50 [1] | IC50 [2] | IC50 [3] | IC50 [4]

O=C1CC[C@H](N2C(=O)c3ccccc3C2=O)C(=O)N1
Not Active: IC50 (Acetylcholinesterase) | IC50 (Caspase-1) | IC50 (Nitric oxide synthase 1) | IC50 [1] | IC50 [2] | IC50 [3] | IC50 [4]

N=C(Nc1ccccc1)Nc1ccccc1
Not Active: IC50 (Acetylcholinesterase) | IC50 (Caspase-1) | IC50 (Nitric oxide synthase 1) | IC50 [1] | IC50 [2] | IC50 [3] | IC50 [4]

C[C@@H](O)[C@H](CO)NC(=O)[C@@H]1CSSC[C@H](NC(=O)[C@H](N)Cc2ccccc2)C(=O)N[C@@H](Cc2ccccc2)C(=O)N[C@H](Cc2c[nH]c3ccccc23)C(=O)N[C@@H](CCCCN)C(=O)N[C@@H]([C@@H](C)O)C(=O)N1 (H-[dF]CF[dW]KTC-{Threoninol(2S,3R)}; disulfide 2-7)
Not Active: IC50 (Acetylcholinesterase) | IC50 (Caspase-1) | IC50 (Nitric oxide synthase 1) | IC50 [1] | IC50 [2] | IC50 [3] | IC50 [4]

S=C=Nc1cccc2ccccc12 [1-NAPHTHYLISOTHIOCYANATE]
Not Active: IC50 (Acetylcholinesterase) | IC50 (Caspase-1) | IC50 (Nitric oxide synthase 1) | IC50 [1] | IC50 [2] | IC50 [3] | IC50 [4]

C[C@](O)(CS(=O)(=O)c1ccc(F)cc1)C(=O)Nc1ccc(C#N)c(C(F)(F)F)c1 [(R)-BICALUTAMIDE]
Not Active: IC50 (Acetylcholinesterase) | IC50 (Caspase-1) | IC50 (Nitric oxide synthase 1) | IC50 [1] | IC50 [2] | IC50 [3] | IC50 [4]

CCCC(=O)Nc1ccc(OCC(O)CNC(C)C)c(C(C)=O)c1 (configuration not stated) [ACEBUTOLOL]
Not Active: IC50 (Acetylcholinesterase) | IC50 (Caspase-1) | IC50 (Nitric oxide synthase 1) | IC50 [1] | IC50 [2] | IC50 [3] | IC50 [4]

CC(=O)Nc1ccc(O)cc1 [ACETAMINOPHEN]
Not Active: IC50 (Acetylcholinesterase) | IC50 (Caspase-1) | IC50 (Nitric oxide synthase 1) | IC50 [1] | IC50 [2] | IC50 [3] | IC50 [4]

COc1cc2c(c3oc(=O)c4c(c13)CCC4=O)[C@@H]1C=CO[C@@H]1O2 [AFLATOXIN]
Not Active: IC50 (Acetylcholinesterase) | Ki (Acetylcholinesterase) | IC50 (Caspase-1) | Ki (Caspase-1) | IC50 (Nitric oxide synthase 1) | Ki (Nitric oxide synthase 1) | IC50 [1] | Ki [1] | IC50 [2] | Ki [2] | IC50 [3] | Ki [3] | IC50 [4] | Ki [4]

N=C(N)NC(=O)c1nc(Cl)c(N)nc1N [AMILORIDE]
Not Active: IC50 (Acetylcholinesterase) | IC50 (Caspase-1) | IC50 (Nitric oxide synthase 1) | IC50 [1] | IC50 [2] | IC50 [3] | IC50 [4]

Cc1cc(=O)n(-c2ccccc2)n1C [ANTIPYRINE]
Not Active: IC50 (Acetylcholinesterase) | IC50 (Caspase-1) | IC50 (Nitric oxide synthase 1) | IC50 [1] | IC50 [2] | IC50 [3] | IC50 [4]

CN1C(=O)COc2c(C(=O)NC3CN4CCC3CC4)cc(Cl)cc21 (configuration not stated) [AZASETRON]
Not Active: IC50 (Acetylcholinesterase) | IC50 (Caspase-1) | IC50 (Nitric oxide synthase 1) | IC50 [1] | IC50 [2] | IC50 [3] | IC50 [4]

C[C@H]1C[C@H]2[C@@H]3CCC4=CC(=O)C=C[C@]4(C)[C@@]3(Cl)[C@@H](O)C[C@]2(C)[C@@]1(O)C(=O)CO [BECLOMETHASONE]
Not Active: IC50 (Acetylcholinesterase) | IC50 (Caspase-1) | IC50 (Nitric oxide synthase 1) | IC50 [1] | IC50 [2] | IC50 [3] | IC50 [4]

CCOC(=O)[C@H](CCc1ccccc1)N[C@H]1CCc2ccccc2N(CC(=O)O)C1=O [BENAZEPRIL]
Not Active: IC50 (Acetylcholinesterase) | IC50 (Caspase-1) | IC50 (Nitric oxide synthase 1) | IC50 [1] | IC50 [2] | IC50 [3] | IC50 [4]

Nc1c(CC(=O)O)cccc1C(=O)c1ccc(Br)cc1 [BROMFENAC]
Not Active: IC50 (Acetylcholinesterase) | IC50 (Caspase-1) | IC50 (Nitric oxide synthase 1) | IC50 [1] | IC50 [2] | IC50 [3] | IC50 [4]

CCCCN1CCCCC1C(=O)Nc1c(C)cccc1C.Cl (configuration not stated) [BUPIVACAINE HYDROCHLORIDE]
Not Active: IC50 (Acetylcholinesterase) | IC50 (Caspase-1) | IC50 (Nitric oxide synthase 1) | IC50 [1] | IC50 [2] | IC50 [3] | IC50 [4]

O=C1CC2(CCCC2)CC(=O)N1CCCCN1CCN(c2ncccn2)CC1 [BUSPIRONE]
Not Active: IC50 (Acetylcholinesterase) | IC50 (Caspase-1) | IC50 (Nitric oxide synthase 1) | IC50 [1] | IC50 [2] | IC50 [3] | IC50 [4]

C[C@@]12C(=O)OC(=O)[C@]1(C)[C@H]1CC[C@@H]2O1 [CANTHARIDIN]
Not Active: IC50 (Acetylcholinesterase) | IC50 (Caspase-1) | IC50 (Nitric oxide synthase 1) | IC50 [1] | IC50 [2] | IC50 [3] | IC50 [4]

O=NN(CCCl)C(=O)NCCCl [CARMUSTINE]
Not Active: IC50 (Acetylcholinesterase) | IC50 (Caspase-1) | IC50 (Nitric oxide synthase 1) | IC50 [1] | IC50 [2] | IC50 [3] | IC50 [4]

CC1=C(C(=O)O)N2C(=O)[C@@H](NC(=O)[C@H](N)c3ccccc3)[C@H]2SC1 [CEPHALEXIN ANHYDROUS]
Not Active: IC50 (Acetylcholinesterase) | IC50 (Caspase-1) | IC50 (Nitric oxide synthase 1) | IC50 [1] | IC50 [2] | IC50 [3] | IC50 [4]

CCc1c2c(nc3ccc(OC(=O)N4CCC(N5CCCCC5)CC4)cc13)-c1cc3c(c(=O)n1C2)COC(=O)[C@]3(O)CC [IRINOTECAN]
Not Active: IC50 (Caspase-1) | IC50 (Nitric oxide synthase 1) | IC50 [1] | IC50 [2] | IC50 [3] | IC50 [4]

COc1ccc2cc([C@H](C)C(=O)O)ccc2c1 [NAPROXEN]
Not Active: IC50 (Caspase-1) | IC50 (Nitric oxide synthase 1) | IC50 [1] | IC50 [2] | IC50 [3] | IC50 [4]

OC(CCN1CCCCC1)(c1ccccc1)C1CCCCC1 (configuration not stated) [TRIHEXYPHENIDYL]
Not Active: IC50 (Acetylcholinesterase) | IC50 (Caspase-1) | IC50 (Nitric oxide synthase 1) | IC50 [2] | IC50 [3] | IC50 [4]
